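Growth conditions: 96-well plates. Treatment: test compound, 48 hours, 5 concentrations. Analysis: linear interpolation between bracketing concentrations; unreached endpoints set to highest concentration. The concentration for 50% growth inhibition is given as GI50. At the TGI there is no net growth.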
Tests used:
Test in all cases: NCI tumour cell line growth inhibition, 48 h
SK-MEL-5 melanoma = test system: SK-MEL-5 melanoma
SF-539 CNS = test system: SF-539 CNS
HS 578T breast = test system: HS 578T breast
MDA-MB-231 breast = test system: MDA-MB-231 breast
RXF 393 renal = test system: RXF 393 renal
TK-10 renal = test system: TK-10 renal
SF-268 CNS = test system: SF-268 CNS
MDA-MB-435 = test system: MDA-MB-435
T-47D breast = test system: T-47D breast
UACC-257 melanoma = test system: UACC-257 melanoma
OVCAR-5 ovarian = test system: OVCAR-5 ovarian
SK-MEL-2 melanoma = test system: SK-MEL-2 melanoma
HCT-116 colon = test system: HCT-116 colon
COLO 205 colon = test system: COLO 205 colon
HCT-15 colon = test system: HCT-15 colon
A549 NSCLC = test system: A549 NSCLC
UACC-62 melanoma = test system: UACC-62 melanoma
SR leukemia = test system: SR leukemia
HOP-92 NSCLC = test system: HOP-92 NSCLC
OVCAR-3 ovarian = test system: OVCAR-3 ovarian
MOLT-4 leukemia = test system: MOLT-4 leukemia
NCI/ADR-RES ovarian = test system: NCI/ADR-RES ovarian
PC-3 prostate = test system: PC-3 prostate
SNB-19 CNS = test system: SNB-19 CNS
CAKI-1 renal = test system: CAKI-1 renal
RPMI-8226 leukemia = test system: RPMI-8226 leukemia
K-562 leukemia = test system: K-562 leukemia
SF-295 CNS = test system: SF-295 CNS
IGROV1 ovarian = test system: IGROV1 ovarian
LOX IMVI melanoma = test system: LOX IMVI melanoma
NCI-H226 lung = test system: NCI-H226 lung
OVCAR-8 ovarian = test system: OVCAR-8 ovarian
BT-549 breast = test system: BT-549 breast
U251 CNS = test system: U251 CNS
HL-60(TB) leukemia = test system: HL-60(TB) leukemia
ACHN renal = test system: ACHN renal
UO-31 renal = test system: UO-31 renal
SK-OV-3 ovarian = test system: SK-OV-3 ovarian
KM12 colon = test system: KM12 colon
SN12C renal = test system: SN12C renal
M14 melanoma = test system: M14 melanoma
HOP-62 NSCLC = test system: HOP-62 NSCLC
NCI-H522 lung = test system: NCI-H522 lung
EKVX NSCLC = test system: EKVX NSCLC
786-0 renal = test system: 786-0 renal
SW-620 colon = test system: SW-620 colon
DU-145 prostate = test system: DU-145 prostate
NCI-H460 lung = test system: NCI-H460 lung

SMILES: N#CC1=C(N)N=C(N2CCOCC2)C(C#N)C12Nc1ccccc1S2 (stereo unspecified)
- GI50 (SK-MEL-5 melanoma): 12.5 µM
- TGI (SK-MEL-5 melanoma): 28.2 µM
- GI50 (SF-539 CNS): 18.9 µM
- TGI (SF-539 CNS): 35.5 µM
- GI50 (HS 578T breast): 1.75 µM
- TGI (HS 578T breast): 7.17 µM
- GI50 (MDA-MB-231 breast): 26.7 µM
- TGI (MDA-MB-231 breast): > 100 µM
- GI50 (RXF 393 renal): 19 µM
- TGI (RXF 393 renal): > 100 µM
- GI50 (TK-10 renal): 14 µM
- TGI (TK-10 renal): 49.2 µM
- GI50 (SF-268 CNS): 8.05 µM
- TGI (SF-268 CNS): 27.5 µM
- GI50 (MDA-MB-435): 22.9 µM
- TGI (MDA-MB-435): 61.1 µM
- GI50 (T-47D breast): 27.3 µM
- TGI (T-47D breast): 88.2 µM
- GI50 (UACC-257 melanoma): 28 µM
- TGI (UACC-257 melanoma): 89.1 µM
- GI50 (OVCAR-5 ovarian): 45.1 µM
- TGI (OVCAR-5 ovarian): > 100 µM
- GI50 (SK-MEL-2 melanoma): 35.2 µM
- TGI (SK-MEL-2 melanoma): 95 µM
- GI50 (HCT-116 colon): 35.4 µM
- TGI (HCT-116 colon): > 100 µM
- GI50 (COLO 205 colon): 12.7 µM
- TGI (COLO 205 colon): 52.4 µM
- GI50 (HCT-15 colon): 29.1 µM
- TGI (HCT-15 colon): > 100 µM
- GI50 (A549 NSCLC): 33.3 µM
- TGI (A549 NSCLC): > 100 µM
- GI50 (UACC-62 melanoma): 18.8 µM
- TGI (UACC-62 melanoma): 40.9 µM
- GI50 (SR leukemia): 9.31 µM
- TGI (SR leukemia): > 100 µM
- GI50 (HOP-92 NSCLC): 41.3 µM
- TGI (HOP-92 NSCLC): > 100 µM
- GI50 (OVCAR-3 ovarian): 20.1 µM
- TGI (OVCAR-3 ovarian): 58.1 µM
- GI50 (MOLT-4 leukemia): 23.4 µM
- TGI (MOLT-4 leukemia): > 100 µM
- GI50 (NCI/ADR-RES ovarian): 39.3 µM
- TGI (NCI/ADR-RES ovarian): 75.9 µM
- GI50 (PC-3 prostate): 20.1 µM
- TGI (PC-3 prostate): > 100 µM
- GI50 (SNB-19 CNS): 33.8 µM
- TGI (SNB-19 CNS): > 100 µM
- GI50 (CAKI-1 renal): 12.6 µM
- TGI (CAKI-1 renal): 44.4 µM
- GI50 (RPMI-8226 leukemia): 16 µM
- TGI (RPMI-8226 leukemia): 88.5 µM
- GI50 (K-562 leukemia): 26.7 µM
- TGI (K-562 leukemia): > 100 µM
- GI50 (SF-295 CNS): 26.3 µM
- TGI (SF-295 CNS): 79.1 µM
- GI50 (IGROV1 ovarian): 67.3 µM
- TGI (IGROV1 ovarian): > 100 µM
- GI50 (LOX IMVI melanoma): 16.5 µM
- TGI (LOX IMVI melanoma): 41.1 µM
- GI50 (NCI-H226 lung): 27.8 µM
- TGI (NCI-H226 lung): > 100 µM
- GI50 (OVCAR-8 ovarian): 4.23 µM
- TGI (OVCAR-8 ovarian): 59.5 µM
- GI50 (BT-549 breast): 23.3 µM
- TGI (BT-549 breast): 60.6 µM
- GI50 (U251 CNS): 27.8 µM
- TGI (U251 CNS): > 100 µM
- GI50 (HL-60(TB) leukemia): 51 µM
- TGI (HL-60(TB) leukemia): > 100 µM
- GI50 (ACHN renal): 21.8 µM
- TGI (ACHN renal): 76 µM
- GI50 (UO-31 renal): 16.4 µM
- TGI (UO-31 renal): 61.4 µM
- GI50 (SK-OV-3 ovarian): 24.1 µM
- TGI (SK-OV-3 ovarian): > 100 µM
- GI50 (KM12 colon): 15 µM
- TGI (KM12 colon): 33.6 µM
- GI50 (SN12C renal): 27.5 µM
- TGI (SN12C renal): 82.9 µM
- GI50 (M14 melanoma): 35 µM
- TGI (M14 melanoma): 65.4 µM
- GI50 (HOP-62 NSCLC): 61.4 µM
- TGI (HOP-62 NSCLC): > 100 µM
- GI50 (NCI-H522 lung): 17.6 µM
- TGI (NCI-H522 lung): 51.5 µM
- GI50 (EKVX NSCLC): 1.7 µM
- TGI (EKVX NSCLC): 15.6 µM
- GI50 (786-0 renal): 29.6 µM
- TGI (786-0 renal): 76.2 µM
- GI50 (SW-620 colon): 23.2 µM
- TGI (SW-620 colon): > 100 µM
- GI50 (DU-145 prostate): 19.2 µM
- TGI (DU-145 prostate): 56.5 µM
- GI50 (NCI-H460 lung): 16.6 µM
- TGI (NCI-H460 lung): 37.1 µM
